From patent US4097482A, “5-O-Cyanobenzyl-4,5,6,7-tetrahydro-thieno[3,2-c]pyridine maleate” (Centre d'Etudes Pour L'Industrie Pharmaceutique, priority 1975, dated 1978)

Tests used:
[1] = tested on: carrageenin-induced edema; test: Anti-inflammatory action: localised carrageenin-induced edema method; format: in vivo; conditions: rats, 100 mg/kg orally 1 h before, with, 1 h and 2.5 hrs after carrageenin
Procedure: (a) Localised carrageenin-induced edema method: A 1% carrageenin solution (0.1 ml) is injected in the metatarsal flexor muscles of the right hind limb of rats at time 0. The animals of the treated group are additionally administered orally 100 mg/kg of the test derivative, respectively one hour prior to and then simultaneously with the injection of the phlogogenic agent, and then 1 hour and 2.5 hrs thereafter. The percent anti-inflammatory activity with reference to the reference group, as a function of time, is determined by measurements effected with a Roch micrometer at times 0, 1 hour, 2 hours, 3 hours and 5 hours after carrageenin administration. The results obtained with derivatives nos.

[2] = tested on: ovalbumin-induced systemic edema; test: Anti-inflammatory action: ovalbumin-induced systemic edema method; format: in vivo; conditions: rats, 100 mg orally 1 hr prior to and with ovalbumin, vs control group
Procedure: (b) Ovalbumin-induced systemic edema method Rats are administered a simultaneous intraperitoneal injection of 1 ml ovalbumin and 0.5 ml of a 1°/.Salinity. aqueous Evans Blue solution. The animals of the treated group are additionally administered orally 100 mg of the test derivative, 1 hr prior to and simultaneously with ovalbumin administration. The intensity of the phenomenon thus induced is scored according to a scale from 1 to 5, according to the progress of the inflammatory syndrome. Thus are determined the mean intensity of the edema and the percent decrease of the edema reaction with respect to the control group.

[3] = Toxicological investigation: acute toxicity LD50 in mice, intravenous route; conditions: mouse, in vivo, per kg body weight

SMILES	Percent anti-inflammatory activity after 1 hour [1] [%]	Percent anti-inflammatory activity after 2 hours [1] [%]	Percent anti-inflammatory activity after 5 hours [1] [%]	Percent decrease (of the edema reaction) after 2 hours [2] [%]	Percent decrease (of the edema reaction) after 3 hours [2] [%]	LD50 at 24 h [3] [mg/kg]
COC(=O)c1ccccc1CN1CCc2sccc2C1 [Derivative no. 1, 5-o-Methoxycarbonylbenzyl-4,5,6,7-tetrahydro-thieno[3,2-c]pyridine]	43	50	55	51	58	92
O=C(O)c1ccccc1CN1CCc2sccc2C1 [Derivative no. 2, 5-o-Carboxybenzyl-4,5,6,7-tetrahydro-thieno[3,2-c]pyridine]	–	–	–	–	–	300
COC(=O)c1ccccc1CN1Cc2ccsc2CC1C (stereo not drawn) [Derivative no. 3, 5-o-Methoxycarbonylbenzyl-6-methyl-4,5,6,7-tetrahydrothieno[3,2-c]pyridine]	–	–	–	–	–	65
Cl.Clc1ccc(CN2CCc3sccc3C2)s1 [Derivative no. 4, 5-[(5-Chloro-2-thienyl)-methyl]-4,5,6,7-tetrahydro-thieno[3,2-c]pyridine hydrochloride]	39	47	54	48	53	165
OC(CN1CCc2sccc2C1)c1cccs1 (stereo not drawn) [Derivative no. 5, 5-[2-hydroxy-2-(2-thienyl)-ethyl]-4,5,6,7-tetrahydro-thieno[3,2-c]pyridinefumarate]	45	53	59	50	61	75
Cl.Clc1ccccc1C=CCN1CCc2sccc2C1 [Derivative no. 6, 5-(3-o-chlorophenyl-2-propenyl)-4,5,6,7-tetrahydro-thieno[3,2-c]pyridine hydrochloride]	–	–	–	–	–	60
N#Cc1ccccc1CN1CCc2sccc2C1.O=C(O)/C=C\C(=O)O [Derivative no. 7, 5-o-cyanobenzyl-4,5,6,7-tetrahydrothieno[3,2-c]pyridine maleate]	–	–	–	–	–	45
Cl.c1cc2c(s1)CCN(Cc1ccc3c(c1)OCO3)C2 [Derivative no. 8, 5-(3,4-methylenedioxy-benzyl)-4,5,6,7-tetrahydro-thieno[3,2-c]pyridine hydrochloride]	41	51	59	54	64	65
OCc1ccccc1CN1CCc2sccc2C1 [Derivative no. 10, 5-o-hydroxy-methylbenzyl-4,5,6,7-tetrahydrothieno[3,2-c]pyridine]	36	48	56	51	62	–
